Laboratory results from US12077503B2, “Substituted cyclic amides and their use as herbicides” (FMC CORPORATION, priority 2015, dated 2024).

Columns and labels:
Assay type in all cases: in vivo
[1] = test system: giant foxtail (Setaria faberi); assay: Test G Pre-Emergence Protocol; details: Setaria faberi, pre-emergence, 312 h, evaluated after 13 days
Procedure, shortened: (§1)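 Herbicidal effect was rated 13 days post-application on a scale where 100 equals total damage. Spraying took place the day after sowing, using 15.625, 62.5 or 250 g/ha of compound in a 50:50 acetone/water solution with 0.5% Tween 20.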

[2] = test system: velvetleaf (Abutilon theophrasti); assay: Test G Pre-Emergence Protocol; details: Abutilon theophrasti, pre-emergence, 312 h, evaluated after 13 days
Procedure, shortened: as §1

[3] = test system: redroot pigweed (Amaranthus retroflexus); assay: Test G Pre-Emergence Protocol; details: Amaranthus retroflexus, pre-emergence, 312 h, evaluated after 13 days
Procedure, shortened: as §1

[4] = test system: barnyardgrass (Echinochloa crus-galli); assay: Test G Pre-Emergence Protocol; details: Echinochloa crus-galli, pre-emergence, 312 h, evaluated after 13 days
Procedure, shortened: as §1

corn (Zea mays) [5] = assay: Test G Pre-Emergence Protocol; details: Zea mays, pre-emergence, 312 h, evaluated after 13 days
Procedure, shortened: as §1

[6] = test system: ivy-leaved morning glory (Ipomoea hederacea); assay: Test G Pre-Emergence Protocol; details: Ipomoea, pre-emergence, 312 h, evaluated after 13 days
Procedure, shortened: as §1

[7] = test system: giant foxtail (Setaria faberi); assay: Test G Post-Emergence Protocol; details: Setaria faberi, post-emergence, 312 h, read-out: Foxtail, Giant damage rating
Procedure, shortened: (§2)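 Foliar application was made 8 days after sowing, using an aqueous spray of the active in acetone/water (50:50) with 0.5% Tween 20, at doses of 15.625, 62.5 or 250 g/ha. Injury was assessed 13 days later, where 100 meant the plant was fully damaged.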

[8] = test system: velvetleaf (Abutilon theophrasti); assay: Test G Post-Emergence Protocol; details: Abutilon theophrasti, post-emergence, 312 h, read-out: Velvetleaf damage rating
Procedure, shortened: as §2

[9] = test system: redroot pigweed (Amaranthus retroflexus); assay: Test G Post-Emergence Protocol; details: Amaranthus retroflexus, post-emergence, 312 h, read-out: Pigweed, Redroot damage rating
Procedure, shortened: as §2

[10] = test system: barnyardgrass (Echinochloa crus-galli); assay: Test G Post-Emergence Protocol; details: Echinochloa crus-galli, post-emergence, 312 h, read-out: Barnyardgrass damage rating
Procedure, shortened: as §2

corn (Zea mays) [11] = assay: Test G Post-Emergence Protocol; details: Zea mays, post-emergence, 312 h, read-out: Corn damage rating
Procedure, shortened: as §2

[12] = test system: ivy-leaved morning glory (Ipomoea hederacea); assay: Test G Post-Emergence Protocol; details: Ipomoea, post-emergence, 312 h, read-out: Morningglory, Ivy-leaved damage rating
Procedure, shortened: as §2

[13] = 15.625 g ai/ha, evaluated after 13 days (100=total damage to plant; 0=no damage to plant)
[14] = 62.5 g ai/ha, evaluated after 13 days, 100=total damage to plant, 0=no damage to plant
[15] = 250 g ai/ha, evaluated after 13 days, 100=total damage to plant, 0=no damage to plant

Compound: CC(C)Oc1cc(F)cc(C2CN(C)C(=O)C2C(=O)Nc2cccc(F)c2F)c1 (stereo not drawn) [Compound 1724]
- pest or weed control at 15.625 g/ha ([1]; 15.625 g ai/ha, read-out: Foxtail, Giant damage rating (100=total damage to plant; 0=no damage to plant)): 70%
- pest or weed control at 62.5 g/ha ([1]; 62.5 g ai/ha, 100=total damage to plant, 0=no damage to plant, read-out: Foxtail, Giant damage rating): 70%
- pest or weed control at 250 g/ha ([1]; 250 g ai/ha, read-out: Foxtail, Giant damage rating (100=total damage to plant; 0=no damage to plant)): 90%
- pest or weed control at 15.625 g/ha ([2]; 15.625 g ai/ha, read-out: Velvetleaf damage rating (100=total damage to plant; 0=no damage to plant)): 0%
- pest or weed control at 62.5 g/ha ([2]; 62.5 g ai/ha, 100=total damage to plant, 0=no damage to plant, read-out: Velvetleaf damage rating): 0%
- pest or weed control at 250 g/ha ([2]; 250 g ai/ha, read-out: Velvetleaf damage rating (100=total damage to plant; 0=no damage to plant)): 0%
- pest or weed control at 15.625 g/ha ([3]; 15.625 g ai/ha, read-out: Pigweed, Redroot damage rating (100=total damage to plant; 0=no damage to plant)): 0%
- pest or weed control at 62.5 g/ha ([3]; 62.5 g ai/ha, 100=total damage to plant, 0=no damage to plant, read-out: Pigweed, Redroot damage rating): 0%
- pest or weed control at 250 g/ha ([3]; 250 g ai/ha, read-out: Pigweed, Redroot damage rating (100=total damage to plant; 0=no damage to plant)): 0%
- pest or weed control at 15.625 g/ha ([4]; 15.625 g ai/ha, read-out: Barnyardgrass damage rating (100=total damage to plant; 0=no damage to plant)): 50%
- pest or weed control at 62.5 g/ha ([4]; 62.5 g ai/ha, 100=total damage to plant, 0=no damage to plant, read-out: Barnyardgrass damage rating): 70%
- pest or weed control at 250 g/ha ([4]; 250 g ai/ha, read-out: Barnyardgrass damage rating (100=total damage to plant; 0=no damage to plant)): 90%
- plant injury at 15.625 g/ha (corn (Zea mays) [5]; 15.625 g ai/ha, read-out: Corn damage rating (100=total damage to plant; 0=no damage to plant)): 0%
- plant injury at 62.5 g/ha (corn (Zea mays) [5]; 62.5 g ai/ha, 100=total damage to plant, 0=no damage to plant, read-out: Corn damage rating): 40%
- plant injury at 250 g/ha (corn (Zea mays) [5]; 250 g ai/ha, read-out: Corn damage rating (100=total damage to plant; 0=no damage to plant)): 90%
- pest or weed control at 15.625 g/ha ([6]; 15.625 g ai/ha, read-out: Morningglory, Ivy-leaved damage rating (100=total damage to plant; 0=no damage to plant)): 0%
- pest or weed control at 62.5 g/ha ([6]; 62.5 g ai/ha, 100=total damage to plant, 0=no damage to plant, read-out: Morningglory, Ivy-leaved damage rating): 0%
- pest or weed control at 250 g/ha ([6]; 250 g ai/ha, read-out: Morningglory, Ivy-leaved damage rating (100=total damage to plant; 0=no damage to plant)): 0%
- pest or weed control at 15.625 g/ha [7, 13]: 70%
- pest or weed control at 62.5 g/ha [7, 14]: 70%
- pest or weed control at 250 g/ha [7, 15]: 90%
- pest or weed control at 15.625 g/ha [8, 13]: 0%
- pest or weed control at 62.5 g/ha [8, 14]: 10%
- pest or weed control at 250 g/ha [8, 15]: 70%
- pest or weed control at 15.625 g/ha [9, 13]: 0%
- pest or weed control at 62.5 g/ha [9, 14]: 10%
- pest or weed control at 250 g/ha [9, 15]: 60%
- pest or weed control at 15.625 g/ha [10, 13]: 40%
- pest or weed control at 62.5 g/ha [10, 14]: 70%
- pest or weed control at 250 g/ha [10, 15]: 90%
- plant injury at 15.625 g/ha (corn (Zea mays) [11]; [13]): 0%
- plant injury at 62.5 g/ha (corn (Zea mays) [11]; [14]): 30%
- plant injury at 250 g/ha (corn (Zea mays) [11]; [15]): 90%
- pest or weed control at 15.625 g/ha [12, 13]: 40%
- pest or weed control at 62.5 g/ha [12, 14]: 30%
- pest or weed control at 250 g/ha [12, 15]: 70%
